How the values were obtained:
[1] = biological target: T1, human Edg-4 (Homo sapiens, UniProt Q9HBW0); test: Ca2+ responses (Fura-2) in RH7777 cells expressing Edg-4 (stable or transient); type: cell-based; details: 100 nM LPA 18:1 and 1 μM DGPP 8:0
T1 construct: expressed in transfected cells
Description: RH7777 cells, stably expressing human Edg-4, were kindly provided by Dr. Kevin Lynch (University of Virginia, Charlottesville, Va.). Flag-tagged cDNA's encoding human Edg-4 and -7 inserted into the pCDNA3 expression plasmid (Invitrogen, Carlsbad, Calif.), were a generous gift from Dr. Junken Aoki (University of Tokyo, Tokyo, Japan). RH7777 and NIH3T3 cells were obtained from the American Type Culture Collection (Manassas, Va.). HEY cells were provided by Dr. Lisa Jennings (University of Tennessee, Memphis). All cell lines were maintained in Dulbecco's Modified Eagle's Medium (DMEM) containing 10% FBS and 2 mM glutamine. Oocytes were obtained from adult Xenopus laevis frogs as previously described (Tigyi et al., 1999).
(§1) RH7777 cells were transfected with the cDNA constructs encoding human Edg-2, Edg-4, or Edg-7 and then were subcloned into the pCDNA3 expression vector using the Cytofectene transfection reagent according to the manufacturers' protocol. Transfected cells were selected in DMEM containing 10% FBS and 1 mg/ml geneticin. Resistant cells were collected and subcloned by limiting dilution. The resulting clones were then screened using functional assays and RT-PCR analysis. Data are representative of three individual clones.
RH7777 cells were plated on polylysine-coated glass coverslips (Bellco, Vineland, N.J.) one day prior to transfection. The following day, cells were transfected overnight (16-18 hr) with 1 μg of plasmid DNA mixed with 6 μl of Cytofectene. The cells were then rinsed twice with DMEM and cultured in DMEM containing 10% FBS. The next day, the cells were rinsed with DMEM and serum was withdrawn for a minimum of 2 hr prior to monitoring intracellular Ca^2+.

[2] = system: NIH3T3 cells; test: LPA-elicited proliferation of NIH3T3 cells (cell counting); type: cell-based
Description: Proliferation of NIH3T3 cells was assessed by direct cell counting as previously described (Tigyi et al., 1999). NIH3T3 cells were plated in 24-well plates at a density of 10,000 cells/well, in DMEM containing 10% FBS. The following day, the cells were rinsed and serum starved in DMEM for 6 hr. Lipids were then added for 24 hr. Cell numbers were determined by counting in a Coulter counter (Coulter Electronics, Hialeah, Fla.).

[3] = system: G-protein coupled receptors for serotonin; details: oocytes injected with rat brain polyA+ mRNA
Description: (§2) To show the specificity of DGPP 8:0 for the LPA receptors expressed in the oocyte, the expression of neurotransmitter receptors was induced by the injection of polyA+ mRNA from rat brain.

[4] = system: G-protein coupled receptors for acetycholine; details: oocytes injected with rat brain polyA+ mRNA
Description: as §2

[5] = system: HEY ovarian cancer cells; test: Ca2+ responses in HEY ovarian cancer cells; type: cell-based; details: 100 nM LPA 18:1 mixed with 1 μM lipid
Description: Likewise, PA 8:0 inhibited the Ca^2+ response to 6% of control, whereas PA 18:1 had no effect. HEY express mRNA transcripts for Edg-1, -2, -5, -7 receptors (FIG. 34C).

[6] = biological target: T2, human Edg-7 (Homo sapiens, UniProt Q9UBY5); test: Ca2+ responses (Fura-2) in RH7777 cells expressing Edg-7; type: cell-based
T2 construct: Flag; expressed in transfected cells
T2 sequence (Q9UBY5 1-353): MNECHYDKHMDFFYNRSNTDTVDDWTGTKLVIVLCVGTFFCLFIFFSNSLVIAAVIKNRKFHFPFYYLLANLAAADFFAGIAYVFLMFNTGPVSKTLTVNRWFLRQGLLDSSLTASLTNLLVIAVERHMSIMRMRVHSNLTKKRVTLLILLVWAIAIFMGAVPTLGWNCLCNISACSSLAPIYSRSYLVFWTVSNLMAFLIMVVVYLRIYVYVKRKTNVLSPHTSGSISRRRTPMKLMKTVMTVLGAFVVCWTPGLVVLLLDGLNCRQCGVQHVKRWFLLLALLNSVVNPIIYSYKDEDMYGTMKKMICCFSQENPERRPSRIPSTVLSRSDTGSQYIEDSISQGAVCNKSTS
Description: as §1

[7] = system: NIH3T3 cells
Description: Data points from the intracellular Ca^2+ measurements represent the total peak area of the Ca^2+ transients elicited, as determined by the FLWinLab software (Perkin-Elmer, Wellesley, Mass.). Data points represent the average of at least 3 measurements±standard deviation. The significance of the data points was determined using the students t-test and values were considered significant at p<0.05.
The effect of DGPP 8:0 on LPA-elicited responses was also examined in mammalian systems that endogenously express LPA receptors. NIH3T3 cells were screened by RT-PCR for the presence of mRNA for the Edg and PSP24 receptors.

[8] = biological target: PSP24 PLGFR (Xenopus laevis, UniProt P79945); test: Xenopus oocyte assay: LPA-induced oscillatory chloride currents (two-electrode voltage clamp); type: cell-based
Sequence of PSP24 PLGFR (P79945 whole entry): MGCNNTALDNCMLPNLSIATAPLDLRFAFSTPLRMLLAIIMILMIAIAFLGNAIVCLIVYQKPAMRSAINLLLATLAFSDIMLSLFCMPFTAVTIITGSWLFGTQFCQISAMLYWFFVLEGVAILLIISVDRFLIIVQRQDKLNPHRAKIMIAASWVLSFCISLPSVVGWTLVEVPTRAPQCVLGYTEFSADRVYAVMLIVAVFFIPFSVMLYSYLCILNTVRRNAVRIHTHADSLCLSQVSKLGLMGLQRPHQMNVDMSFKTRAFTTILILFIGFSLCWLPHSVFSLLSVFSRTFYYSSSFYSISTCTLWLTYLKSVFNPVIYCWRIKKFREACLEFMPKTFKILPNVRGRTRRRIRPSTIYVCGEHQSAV
Description: Xenopus oocytes which endogenously express PSP24 PLGFR were used to screen the newly designed and synthesized compounds for their LPA inhibitory activity.
(§3) Oocytes were obtained from xylazine-anesthetized adult Xenopus laevis frogs (Carolina Scientific, Burlington, N.C.) under aseptic conditions and prepared for experiment. […] Oocytes were kept in Barth's solution in an incubator between 17-20° C. and were used for 2-7 days after isolation.
(§4) Electrophysiological recordings were carried out using a standard two-electrode voltage-clamp amplifier holding the membrane potential at −60 mV (GeneClamp 500, Axon Instruments, Calif.). […] Membrane currents were recorded with a NIC-310 digital oscilloscope (Nicolet, Madison, Wis.). Applications were made at intervals of 15 mins (minimum) to allow for the appropriate washout and recovery from desensitization.
as §3
as §4, with “CA).” for “Calif.).”

[9] = biological target: T3, human Edg-2 (Homo sapiens, UniProt Q92633); test: Ca2+ responses (Fura-2) in RH7777 cells expressing Edg-2; type: cell-based
T3 construct: expressed in transfected cells
T3 sequence (Q92633 whole entry): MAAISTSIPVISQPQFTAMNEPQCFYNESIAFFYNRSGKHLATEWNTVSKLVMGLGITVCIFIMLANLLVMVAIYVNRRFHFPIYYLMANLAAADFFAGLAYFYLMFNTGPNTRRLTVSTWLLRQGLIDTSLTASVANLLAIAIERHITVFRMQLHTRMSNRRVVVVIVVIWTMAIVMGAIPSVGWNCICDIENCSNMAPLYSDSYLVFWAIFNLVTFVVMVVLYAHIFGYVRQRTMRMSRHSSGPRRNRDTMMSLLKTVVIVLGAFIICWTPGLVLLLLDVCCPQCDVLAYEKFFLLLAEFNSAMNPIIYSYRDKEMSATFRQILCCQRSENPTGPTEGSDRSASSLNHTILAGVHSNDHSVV
Description: as §1

[10] = 10-fold excess: 100 nM LPA 18:1 and 1 μM DGPP 8:0
[11] = LPA constant at its EC50 (250 nM LPA 18:1), read-out: IC50, inhibition of LPA-elicited Ca2+ responses

T1 sequence (Q9HBW0 whole entry): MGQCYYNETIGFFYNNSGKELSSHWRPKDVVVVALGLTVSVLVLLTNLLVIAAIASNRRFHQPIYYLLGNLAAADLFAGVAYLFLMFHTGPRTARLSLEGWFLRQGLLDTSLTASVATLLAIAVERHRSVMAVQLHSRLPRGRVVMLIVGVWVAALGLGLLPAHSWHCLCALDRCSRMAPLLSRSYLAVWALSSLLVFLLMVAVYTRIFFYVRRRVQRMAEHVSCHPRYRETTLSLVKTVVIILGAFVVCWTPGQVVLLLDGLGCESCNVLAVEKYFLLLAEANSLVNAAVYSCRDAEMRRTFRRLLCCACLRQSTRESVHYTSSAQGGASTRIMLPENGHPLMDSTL

effect on LPA-elicited Ca2+ responses ([1]; stable Edg-4): unaffected
effect on LPA-elicited Ca2+ responses ([1]; transient Edg-4): not effected
inhibition of serotonin-elicited responses [3]: did not inhibit
inhibition of carbachol-elicited responses [4]: did not inhibit
inhibition of the Ca2+ responses ([6]; 250 nM LPA 18:1 mixed with 500 nM lipid): 50%
effect on LPA-elicited Ca2+ responses [6, 10]: completely abolished
IC50 [6, 11]: 285 ± 28 nM
mechanism of inhibition (shift of LPA dose response curve) ([6]; constant DGPP 8:0, 250 nM): competitive
LPA response with compound applied extracellularly ([8]; 5 nM LPA 18:1 and 1 μM DGPP 8:0): completely inhibited
IC50 ([8]; 5 nM LPA 18:1 mixed with increasing DGPP 8:0, read-out: IC50, inhibition of Ca2+-mediated inward Cl- currents elicited by LPA): 96 ± 21 nM
mechanism of action (shift of LPA 18:1 dose response curve) ([8]; 200 nM DGPP 8:0): competitive
reversibility of inhibition of LPA-induced chloride currents ([8]; after washing the oocyte): reversible
Ca2+ response, % of control ([9]; 250 nM LPA 18:1 mixed with 10 μM lipid): 50 % of control
inhibition of LPA-elicited Ca2+ responses [9, 10]: approximately 50%
IC50 [9, 11]: 11000 ± 680 nM
mechanism of inhibition (shift of LPA dose response curve) ([9]; constant DGPP 8:0, 3 μM): competitive
SMILES: CCCCCCCC(=O)OC[C@H](COP(=O)(O)OP(=O)(O)O)OC(=O)CCCCCCC [DGPP 8:0, diacylglycerol pyrophosphate]
effect on LPA-induced proliferation ([2]; 5 μM LPA 18:1 mixed with 10 μM lipid, 24 hr): significantly inhibited
effect on solvent-treated control cells ([2]; 10 μM lipid, solvent (BSA) in place of LPA 18:1, 24 hr): had no effect
LPA-elicited Ca2+ response, % of control [5]: 12 % of control
effect on LPA-elicited Ca2+ responses ([7]; 100 nM LPA in the presence of 10 μM DGPP 8:0): significantly inhibited
effect on S1P-elicited Ca2+ response ([7]; 100 nM S1P in the presence of 10 μM DGPP 8:0): not effected
inhibition of the Ca2+ responses ([7]; 100-fold excess over LPA): 40%
LPA response after intracellular injection of compound ([8]; intracellular injection, estimated >300 nM, extracellular 5 nM LPA 18:1): elicited a response equal in size to that of the control
